Here are results for two molecules from article PMC7926264 (Clinical cancer research : an official journal of the …, 2020).

For one data set, the system named is Calu-3 cells (HER2 amp). The data set is described as follows: cells. The format is cell-based. To be noted: Homo sapiens, Calu-3, 72 h, read-out: IC50 proliferation.
Data set [1] deals with CUTO18 cells (EGFR exon 20 insertion p.S768_D770dupSVD). The data set is described as follows: cells. To be noted: Homo sapiens, 72 h, read-out: IC50 proliferation.
In data set [2] the test system is CUTO17 cells (EGFR exon 20 insertion p.N771_773dupNPH). The data set is described as follows: cells. The note with it: Homo sapiens, CUTO17, 72 h, read-out: IC50 proliferation.
Data set [3] has as its system CUTO14 cells (EGFR exon 20 insertion p.A767_V769dupASV). The data set can be described thus: cells. The note with it: Homo sapiens, CUTO14, 72 h, read-out: IC50 proliferation.
Data set [4] has as its system H1781 cells (HER2 ex20ins). The data set can be described thus: cells. The format is cell-based. The note with it: Homo sapiens, NCI-H1781, 72 h, read-out: IC50 proliferation.
Data set [5] concerns H661 cells (HER4 overexpression). The data set can be described thus: cells. The format is cell-based. To be noted: Homo sapiens, NCI-H661, 72 h, read-out: IC50 proliferation.
The subject of a further data set is H2170 cells (HER2 amp). The data set can be described thus: cells. The format is cell-based. To be noted: Homo sapiens, NCI-H2170, 72 h, read-out: IC50 proliferation.
Data set [6] concerns EGFR phosphorylation (pEGFR) in CUTO14, CUTO17, and CUTO18.
For data set [7] the following is noted: cited from earlier work.
Data set [8] can be described thus: Human plasma protein binding. The format is in vitro ADME.
A short description of data set [9]: Mouse plasma protein binding. The format is in vitro ADME.
Data set [10] in a line: Afatinib plasma pharmacokinetics and human equivalent dose in nude mice. The format is in vivo.
In data set [11] the test system is MDA-MB-175vIII cells (DOC4-NRG1 fusion). The data set can be described thus: cells. The format is cell-based. To be noted: Homo sapiens, 72 h, read-out: IC50 proliferation.
The nature of data set [12]: Clinical plasma pharmacokinetics of afatinib. The format is in vivo. The note with it: human, po, 40 mg.

Structures are written as SMILES.

With `C=CC(=O)Nc1cc(Nc2nccc(-c3cn(C)c4ccccc34)n2)c(OC)cc1N(C)CCN(C)C` [Osimertinib], the IC50 in the data set with Calu-3 cells (HER2 amp) worked out at 188 ± 35.2 nM; in data set [1], 647 ± 6.7 nM; in data set [2] it was 426 ± 21.5 nM; in data set [3] it was 303 nM; in data set [4] it was 406 nM; in data set [5], 4518 ± 2 nM. Further, in the data set on H2170 cells (HER2 amp), the IC50 came to 113 ± 4.4 nM. The “inhibition of EGFR phosphorylation (pEGFR)” value in data set [6] is given as “showed inhibition at higher concentrations”.
As for `CN(C)C/C=C/C(=O)Nc1cc2c(Nc3ccc(F)c(Cl)c3)ncnc2cc1O[C@H]1CCOC1` [Afatinib], the IC50 in the data set with Calu-3 cells (HER2 amp) worked out at 31 ± 11.4 nM; in data set [4], 66 nM; in [11], 1.2 ± 3.1 nM; in the data set with H2170 cells (HER2 amp), 11 ± 2.9 nM. Further, in data set [7] (40mg PO daily), the “Cmax in patients at steady state” value is listed as 38 ng/mL. Further, in data set [7] (human, 40 mg PO once daily), the “plasma AUCtotal” value is 324 ng·h/mL. Besides, the maximum concentration (Cmax) in data set [7] (read-out: Cmax in patients at steady state, 40mg PO daily) was 78 nM. The free fraction (fraction unbound) is 0.0821 in data set [8] and 0.0577 in [9]. Besides, the “human equivalent dose (HED) in nude mice” value in data set [10] (extrapolation by linear regression to total AUC of 468 ng*hr/mL) is recorded as 6 mg/kg. For the same molecule, the “plasma AUCtotal required in mice to replicate human AUCfree” value in data set [10] (mice) came out at 468 ng·h/mL. The molecule also displayed an AUC in [12] of 27 ng·h/mL.
